Results taken from PMC9942557, “Bolaamphiphile Analogues of 12-bis-THA Cl2 Are Potent Antimicrobial Therapeutics with Distinct Mechanisms of Action against Bacterial, Mycobacterial, and Fungal Pathogens” (mSphere, 2022).
≈ marks a conversion by molar mass, not a printed value. Read-outs that look alike come from different tables or passages of the source.

Legend:
M. tuberculosis Bleupan = type: in vivo, Galleria mellonella; conditions: in vivo
P. aeruginosa NCTC 13437 = assay: Fixed-concentration (0.25× MIC bolalipid) synergy broth microdilution; type: cell-based, Pseudomonas aeruginosa; conditions: P. aeruginosa NCTC 13437
P. aeruginosa PAO1 [1] = assay: as above; type: cell-based, Pseudomonas aeruginosa; conditions: P. aeruginosa PAO1
[2] = tested on: VR Enterococcus faecium NCTC 12204; assay: Broth microdilution MIC; type: cell-based; conditions: VR Enterococcus faecium NCTC 12204
C. krusei 3876 = assay: Broth microdilution MIC; type: cell-based
[3] = tested on: Acinetobacter baumannii AYE; assay: Broth microdilution MIC; type: cell-based; conditions: Acinetobacter baumannii AYE
[4] = tested on: Klebsiella pneumoniae NCTC 13368; assay: Broth microdilution MIC; type: cell-based
C. glabrata 8018 = assay: Broth microdilution MIC; type: cell-based
HeLa = assay: In vitro toxicity for cell line; type: cell-based, human; conditions: average ± standard error from 3 independent repeats
From the text: (§1) TABLE 2 Toxicity of bolaamphiphiles for two cell lines^a | column: Toxicity (EC50 [μg/ml]) of: / 12-bis-THA Cl2; Toxicity (EC50 [μg/ml]) of: / Dequalinium; Toxicity (EC50 [μg/ml]) of: / Quino-bola; Toxicity (EC50 [μg/ml]) of: / Penta-bola; Toxicity (EC50 [μg/ml]) of: / Hepta-bola; Toxicity (EC50 [μg/ml]) of: / Octa-bola; Toxicity (EC50 [μg/ml]) of: / Octa-C10; Toxicity (EC50 [μg/ml]) of: / Octa-C8; Toxicity (EC50 [μg/ml]) of: / Octa-C6

HEK293 = assay: In vitro toxicity for cell line; type: cell-based, human; conditions: HEK293; average ± standard error from 3 independent repeats
From the text: as §1

[5] = tested on: VR Enterococcus faecalis NCTC 12201; assay: Broth microdilution MIC; type: cell-based; conditions: VR Enterococcus faecalis NCTC 12201
[6] = tested on: Pseudomonas aeruginosa PAO1; assay: Broth microdilution MIC; type: cell-based
[7] = tested on: VS Enterococcus faecalis NCTC 775; assay: Broth microdilution MIC; type: cell-based
Klebsiella pneumoniae M6 = assay: Broth microdilution MIC; type: cell-based
C. parapsilosis 3209 = assay: Broth microdilution MIC; type: cell-based
[8] = tested on: pBR322 plasmid, wheat germ topoisomerase I; assay: DNA unwinding assay; type: biochemical
Description: A DNA unwinding assay kit (Inspiralis Limited, Norwich, UK) consists of wheat germ topoisomerase I assay buffer (50 mM Tris HCl [pH 7.9], 1 mM EDTA, 1 mM dithiothreitol [DTT], 20% [vol/vol] glycerol, 50 mM NaCl) dilution buffer (50 mM Tris HCl [pH 7.9], 1 mM EDTA, 1 mM DTT, 50% [vol/vol] glycerol, 500 mM NaCl), wheat germ topoisomerase I (5 U/μL), supercoiled plasmid pBR322 (1 μg/μL), and relaxed plasmid pBR322 (1 μg/μL). For the experiments, 2× DNA loading buffer containing 40% (wt/vol) sucrose, 100 mM Tris-HCl (pH 8), 1 mM EDTA, and 0.5 mg/mL bromophenol blue was prepared. The enzyme was diluted 1/5 with dilution buffer before being used in the assay. For the assay, 3 mM stock solutions in methanol of the compounds to be tested were prepared. An appropriate number of 1.5-mL Eppendorf tubes were filled with 25 μL of a mix consisting of assay buffer (15 μL of buffer per sample), supercoiled or relaxed pBR322 (0.5 μg/assay), and ultrapure water. In the first two tubes, 1 μL of methanol was added to test the effect of the solvent on both the plasmid and the enzyme. Subsequently, 1 μL of the test compounds was added to the remaining tubes, and the tubes briefly vortexed and incubated at room temperature for 5 min. After that, 2 μL of dilution buffer was added in the first tube, whereas 2 μL of enzyme diluted solution was added to the remaining tubes. The tubes were gently vortexed and incubated for 30 min at 37°C in a water bath. After this time, the reaction was stopped by adding 20 μL of water and 50 μL of water-saturated butanol to each tube. The tubes were vortexed and centrifuged for 1 min at 14,800 rpm. The lower aqueous layer of each tube was removed and transferred to a new tube containing 30 μL of chloroform-isoamyl alcohol (24/1) and 50 μL of loading buffer. The tubes were briefly vortexed and centrifuged for 1 min. Twenty microliters of the upper layer of each tube was loaded onto a 1% (wt/vol) agarose gel, and the gel was run at 80 V for approximately 4 h in Tris-acetate-EDTA buffer (40 mM Tris acetate and 1 mM EDTA). Subsequently, the gel was stained with ethidium bromide (1 μg/mL) for 15 min, briefly destained (5 to 10 min) in water, and visualized with a Multi-Doc Imaging M-26X UVP transilluminator.

C. tropicalis 8760 = assay: Broth microdilution MIC; type: cell-based
[9] = tested on: Acinetobacter baumannii ATCC 17978; assay: Broth microdilution MIC; type: cell-based
[10] = tested on: Pseudomonas aeruginosa NCTC 13437; assay: Broth microdilution MIC; type: cell-based
C. auris temp probe = assay: Broth microdilution MIC; type: cell-based, Candida auris
[11] = tested on: Escherichia coli NCTC 12923; assay: Broth microdilution MIC; type: cell-based
C. albicans 3281 = assay: Broth microdilution MIC; type: cell-based, Candida albicans
[12] = tested on: EMR Staphylococcus aureus 15 NCTC 13616; assay: Broth microdilution MIC; type: cell-based; conditions: EMR Staphylococcus aureus 15 NCTC 13616
P. aeruginosa PAO1 [13] = assay: Checkerboard synergy assay; type: cell-based, Pseudomonas aeruginosa
[14] = tested on: Escherichia coli ATCC 25922; assay: Intrahemocoelic G. mellonella infection model; type: in vivo, Galleria mellonella; conditions: single 10-mg/kg dose 1 h after infection
Description: The antimicrobial activities of DQC, CM2, and its analogues Quino-bola, Penta-bola, Hepta-bola, and Octa-bola against Escherichia coli ATCC 25922 were tested in Galleria mellonella larvae. All assays were performed on two separate occasions using a group size of 10 larvae; the larvae were kept in separate petri dishes and in a static incubator at 37°C during the period of the experiment. A suspension of E. coli ATCC 25922 was prepared by transferring two colonies of E. coli ATCC 25922 from a fresh agar plate into PBS and adjusting the absorbance to a McFarland 0.5 standard. The number of CFU per milliliter of this suspension was determined and corresponded to 1 × 10^8 CFU/mL. Larvae were injected beneath the tegument with 10 μL of a 1 × 10^7-CFU/mL bacteria suspension, corresponding to 1 × 10^5 CFU per larva. A 50-μL Hamilton syringe with a G27 needle was used for the injection. […] Ten microliters of stock solution was injected into each larva 1 h after infection (10 mg/kg). Levofloxacin (LVX; 50 μg/mL = 2 mg/kg) and PBS were used as positive and negative controls, respectively. A noninfected PBS injection was included to control for the effects of injection. Survival was monitored over a period of 70 to 72 h. Changes in G. mellonella survival were analyzed by the log rank (Mantel-Cox) method and plotted as Kaplan-Meier survival curves using GraphPad Prism version 7.

[15] = tested on: EMR Staphylococcus aureus 16 NCTC 13277; assay: Broth microdilution MIC; type: cell-based; conditions: EMR Staphylococcus aureus 16 NCTC 13277
C. albicans 3179 = assay: Broth microdilution MIC; type: cell-based, Candida albicans
C. parapsilosis = assay: Broth microdilution MIC; type: cell-based
[16] = in the presence of 0.25× MIC Octa-C10 (Table S1)
[17] = in the presence of 0.25× MIC Octa-bola (Table S1)
[18] = Lodderomyces parapsilosis, read-out: MIC

CO[C@H]1/C=C/O[C@@]2(C)Oc3c(C)c(O)c4c(O)c(c(/C=N/N5CCN(C)CC5)c(O)c4c3C2=O)NC(=O)/C(C)=C\C=C\[C@H](C)[C@H](O)[C@@H](C)[C@@H](O)[C@@H](C)[C@H](OC(C)=O)[C@@H]1C [Rifampin]
larvae rescued (M. tuberculosis Bleupan): All G. mellonella larvae were rescued | MIC of antibiotic (P. aeruginosa NCTC 13437; No bola (Table S1)): 16 µg/mL | MIC of antibiotic (P. aeruginosa NCTC 13437; [16]): 8 µg/mL | MIC of antibiotic (P. aeruginosa NCTC 13437; [17]): 16 µg/mL | MIC of antibiotic (P. aeruginosa PAO1 [1]; No bola (Table S1)): 16 µg/mL | MIC of antibiotic (P. aeruginosa PAO1 [1]; [16]): 8 to 16 µg/mL | MIC of antibiotic (P. aeruginosa PAO1 [1]; [17]): 16 µg/mL

CC1(C)S[C@@H]2[C@H](NC(=O)[C@H](N)c3ccccc3)C(=O)N2[C@H]1C(=O)O [Ampicillin]
MIC of antibiotic (P. aeruginosa NCTC 13437; No bola (Table S1)): > 512 µg/mL | MIC of antibiotic (P. aeruginosa NCTC 13437; [16]): > 512 µg/mL | MIC of antibiotic (P. aeruginosa NCTC 13437; [17]): > 512 µg/mL | MIC of antibiotic (P. aeruginosa PAO1 [1]; No bola (Table S1)): > 512 µg/mL | MIC of antibiotic (P. aeruginosa PAO1 [1]; [17]): > 512 µg/mL

C[C@H]1c2cccc(O)c2C(=O)C2=C(O)[C@]3(O)C(=O)C(C(N)=O)=C(O)[C@@H](N(C)C)[C@@H]3[C@@H](O)[C@@H]21 [Doxycyline]
MIC of antibiotic (P. aeruginosa NCTC 13437; No bola (Table S1)): > 256 µg/mL | MIC of antibiotic (P. aeruginosa NCTC 13437; [16]): > 256 µg/mL | MIC of antibiotic (P. aeruginosa NCTC 13437; [17]): > 256 µg/mL | MIC of antibiotic (P. aeruginosa PAO1 [1]; No bola (Table S1)): 32 µg/mL | MIC of antibiotic (P. aeruginosa PAO1 [1]; [16]): 64 µg/mL | MIC of antibiotic (P. aeruginosa PAO1 [1]; [17]): 128 µg/mL

C[C@@H](O)[C@H]1C(=O)N2C(C(=O)O)=C(S[C@@H]3CN[C@H](C(=O)N(C)C)C3)[C@H](C)[C@H]12 [Meropenem]
MIC of antibiotic (P. aeruginosa NCTC 13437; No bola (Table S1)): > 32 µg/mL | MIC of antibiotic (P. aeruginosa NCTC 13437; [16]): > 32 µg/mL | MIC of antibiotic (P. aeruginosa NCTC 13437; [17]): > 32 µg/mL | MIC of antibiotic (P. aeruginosa PAO1 [1]; No bola (Table S1)): > 2 µg/mL | MIC of antibiotic (P. aeruginosa PAO1 [1]; [17]): > 2 µg/mL

CC(C)(O/N=C(\C(=O)N[C@@H]1C(=O)N2C(C(=O)[O-])=C(C[n+]3ccccc3)CS[C@H]12)c1csc(N)n1)C(=O)O [Ceftazidime]
MIC of antibiotic (P. aeruginosa NCTC 13437; No bola (Table S1)): > 128 µg/mL | MIC of antibiotic (P. aeruginosa NCTC 13437; [16]): > 128 µg/mL | MIC of antibiotic (P. aeruginosa NCTC 13437; [17]): > 128 µg/mL | MIC of antibiotic (P. aeruginosa PAO1 [1]; No bola (Table S1)): 2 µg/mL | MIC of antibiotic (P. aeruginosa PAO1 [1]; [17]): 2 µg/mL

Nc1c2c([n+](CCCCCCCCCCCC[n+]3c4c(c(N)c5ccccc53)CCCCC4)c3ccccc13)CCCCC2 [Hepta-bola]
MIC [2]: 0.5 µg/mL | MIC (C. krusei 3876): 0.5 µg/mL | MIC [3]: 16 µg/mL | MIC [4]: 32 µg/mL | MIC (C. glabrata 8018; C. glabrata 8018): 0.25 µg/mL | Toxicity (EC50) (HeLa): 4.5 ± 0.7 µg/mL | Toxicity (EC50) (HEK293): 3.5 ± 1.2 µg/mL | MIC [5]: 0.5 µg/mL | MIC [6]: 32 µg/mL | MIC [7]: 1 µg/mL | MIC (Klebsiella pneumoniae M6): 16 µg/mL | MIC (C. parapsilosis 3209): 1 µg/mL | DNA intercalation ([8]; relaxed pBR322 plasmid plus topoisomerase I (Fig. 2A)): to a slightly lesser extent, Hepta-bola are intercalators | relaxation of supercoiled plasmid through the action of topoisomerase I ([8]; supercoiled pBR322 plasmid, bolalipid present (Fig. 2B)): not observed | MIC (C. tropicalis 8760; C. tropicalis 8760): 0.25 µg/mL | MIC [9]: 16 µg/mL | MIC [10]: 32 µg/mL | MIC (C. auris temp probe; C. auris temp probe): 2 µg/mL | MIC [11]: 2 µg/mL | MIC (C. albicans 3281; C. albicans 3281): 0.5 µg/mL | MIC [12]: 0.25 µg/mL | MIC alone Bolalipid (P. aeruginosa PAO1 [13]): 32 µg/mL | protection (survival over 72 h) [14]: significantly protective | MIC [15]: 0.25 µg/mL | MIC (C. albicans 3179; C. albicans 3179): 0.5 µg/mL | MIC (C. parapsilosis): 2 µg/mL

OC(Cn1cncn1)(Cn1cncn1)c1ccc(F)cc1F [Fluconazole, reference compound]
MIC (C. krusei 3876; Pichia kudriavzevii, read-out: MIC): 32 µg/mL (≈ 104 µM) | MIC (C. glabrata 8018; Nakaseomyces glabratus, 8018): > 128 µg/mL | MIC (C. parapsilosis 3209; [18]): 0.25 µg/mL (≈ 0.816 µM) | MIC (C. tropicalis 8760; Candida tropicalis, 8760): > 128 µg/mL | MIC (C. auris temp probe; Candidozyma auris): > 128 µg/mL | MIC (C. albicans 3281; Candida albicans, 3281): > 128 µg/mL | MIC (C. albicans 3179; Candida albicans, 3179): > 128 µg/mL | MIC (C. parapsilosis; [18]): 0.5 µg/mL (≈ 1.63 µM)

O=C(O)c1cn(C2CC2)c2cc(N3CCNCC3)c(F)cc2c1=O [Ciprofloxacin]
MIC of antibiotic (P. aeruginosa NCTC 13437; No bola (Table S1)): 32 µg/mL | MIC of antibiotic (P. aeruginosa NCTC 13437; [16]): > 64 µg/mL | MIC of antibiotic (P. aeruginosa NCTC 13437; [17]): > 64 µg/mL | MIC of antibiotic (P. aeruginosa PAO1 [1]; No bola (Table S1)): 0.125 µg/mL | MIC of antibiotic (P. aeruginosa PAO1 [1]; [16]): 1 µg/mL | MIC of antibiotic (P. aeruginosa PAO1 [1]; [17]): 1 µg/mL
